The IC50 is the concentration at which inhibition is half-maximal.

We go through one compound from patent publication US12024494B2, “Salt of LSD1 inhibitor and a polymorph thereof” (CSPC ZHONGQI PHARMACEUTICAL TECHNOLOGY (SHIJIAZHUANG) CO., …, priority 2018, dated 2024).

In one data set the target is LSD1 (Homo sapiens (Human), UniProt O60341). The data set can be described thus: LSD1 inhibition, enzyme fluorescent conjugated method. It counts as biochemical. The note with it: 10 concentrations, initial 10 μM, 3-fold dilution, read-out: IC50 (nM) Mean ± standard deviation. The method, then: The experiment was conducted in duplicate with an initial concentration of 10 μM diluted in a gradient of 3 times, and it was repeated twice at different dates.
LSD1 buffer composition: 50 mM Tris-HCl, pH 7.5, 0.05% CHAPS, 1% DMSO.
Reaction time: reacted at room temperature for 1 hour
1.2.1 Adding enzyme to a freshly prepared buffer
1.2.2 Adding a DMSO solution of the compound to the enzyme mixture using Acoustic Technology (Echo 550, LabCyte Inc. Sunnyvale, CA) at nL level, and incubating at room temperature for 30 minutes
1.2.3 Adding the substrate to a freshly prepared buffer
1.2.4 Incubating at room temperature for 1 hour
1.2.5 Preparing to test the mixture
1.2.6 Using Perkin Elmer Envision to read data
1.2.7 Using Excel and GraphPad Prism software to analyze data

Data set [1] in a line: Hygroscopicity by dynamic vapor adsorption (DVS). It counts as physicochemical. The note with it: 25° C. and 80% RH. The method, then:
Instrument model: SMS DVS Advantage dynamic vapor adsorption instrument Test conditions: a sample (10˜15 mg) was taken and placed in the DVS sample pan for testing.
Balance: dm/dt=0.01%/min (shortest: 10 min, longest: 180 min)
drying: drying at 0% RH for 120 min
RH (%) test step range: 0%-90%-0%
Experimental Materials: SMS DVS Advantage dynamic vapor adsorption instrument

The nature of data set [2]: Solvent stability of the crystal form (suspension, 40° C., 2 days). In kind it is physicochemical. Particulars: for Crystal form: 40° C., 2 days. As for the experimental part:
Appropriate amounts of the compound III were weighed and added to different glass vials, and added respectively with appropriate amount of a solvent or a solvent mixture to prepare a suspension. After added with a magnet rotor and placed at room temperature, the above samples were placed on a constant temperature mixer (40° C.) to be shaken for 2 days (avoid from light). In order to ensure that the sample was as suspended as possible, the amount of the compound and the solvent would be adjusted according to the test phenomenon and even the container used in the experiment may be changed during the experiment. (The dissolved sample was evaporated naturally to dryness).

Data set [3] concerns human small cell lung cancer NCI-H1417 cell subcutaneous xenograft tumor. The data set can be described thus: In vivo efficacy on NCI-H1417 subcutaneous xenograft tumor in CB-17 SCID mouse. The note with it: for TGI (%) (Day 35) / Tumor volume (mm^3) (Day 35): PO, QD. The method, then: Week age and weight: 6-8 weeks old, weight: 16-21 grams
Human small cell lung cancer NCI-H1417 cells were cultured in a monolayer in vitro with RPMI-1640 medium plus 10% fetal bovine serum, at 37° C. and 5% CO2 to culture and passage. When the cell saturation was 80%-90%, the cells were collected by trypsin-EDTA digestion, counted, adjusted to 10×10^7 cells/mL and resuspended in PBS.
0.2 mL (10×10^6 cells) of NCI-H1417 cells (with Matrigel, volume ratio 1:1) were subcutaneously inoculated on the right back of each mouse. When the average tumor volume reached about 100-150 mm^3, the mice were grouped randomly and started to be administered.
The experimental vehicle was a 0.5% methyl cellulose solution. 5 g of methyl cellulose was weighed, dissolved in 800 mL of ultrapure water, stirred evenly and brought to the volume of 1000 mL with ultrapure water. The test substance was dissolved in the vehicle, prepared into a uniform solution of a certain concentration, and stored at 4° C.
The experimental indicator was to investigate whether the tumor growth was inhibited, delayed or cured. The tumor diameter was measured with a vernier caliper twice a week. The tumor volume is calculated by the formula of V=0.5a×b^2, where a and b represent the long diameter and short diameter of the tumor, respectively.
TGI (%) is used for the anti-tumor efficacy of the compound. TGI (%) reflects the tumor growth inhibition rate. TGI (%)=[(1−(Average tumor volume at the end of the administration of a certain treatment group−average tumor volume at the beginning of the administration of the treatment group))/(Average tumor volume at the end of treatment in the vehicle control group−Average tumor volume at the beginning of the treatment in the vehicle control group)]×100%. Vehicle control group: Vehicle (0.5% methylcellulose solution).

Data set [4] in a line: Solid stability of the crystal form (XRPD) under high temperature, high humidity and light. In kind it is physicochemical. As for the experimental part:
For the samples placed under the conditions of high temperature (60° C.) and high humidity (relative humidity of 92.5% RH), the bottle opening was sealed with an aluminum foil, and some small holes were pierced in the aluminum foil to ensure that the sample can be sufficiently in contact with ambient air, and the samples were placed in the corresponding constant temperature and humidity ovens. The sample exposed to light (open, not covered with aluminum foil) and the control sample (the entire sample bottle was covered with aluminum foil) were placed in a light box. At each time point, 2 samples were weighed as formal test samples. […] The sample bottles were wrapped with an aluminum foil, and the aluminum foil was pierced with small holes. They were also placed in the corresponding constant temperature and humidity ovens. The sample was taken and detected (by XRPD) at the 5th day and 10th day, and the detection results were compared with the initial detection result at 0 day.

For `N[C@H]1CC[C@H](c2nc(C3(CN[C@@H]4C[C@H]4c4ccccc4)CC3)no2)CC1` [Crystal form A of Compound III], at LSD1, the IC50 is 8 nM. In addition, the Classification of hygroscopicity result in data set [1] is “slightly hygroscopic”. Also, the “ΔW (moisture weight gain)” value in data set [1] was found to be 1.14%. Moreover, the Crystal form entry is reported as “Crystal form A” in data set [2] (Acetonitrile); “Crystal form A” in data set [2] (Isopropanol); “Crystal form A” in data set [2] (Isopropyl acetate); “Crystal form A” in data set [2] (Methanol, dissolved, and then precipitated); “Crystal form A” in data set [2] (Tetrahydrofuran); “Crystal Form A” in data set [4] (0 day (initial)). Besides, the Crystal form entry in data set [4] (High humidity (relative humidity 92.5%, open), 5th day) is recorded as “Crystal Form A”; in data set [4] (High humidity (relative humidity 92.5%, open), 10th day) it was “Crystal Form A”; in data set [4] (High temperature (60° C., open), 5th day), “Crystal Form A”; in data set [4] (High temperature (60° C., open), 10th day) it was “Crystal Form A”; in data set [4] (Light (total illuminance = 1.2 × 10^6 Lux·hr/near ultraviolet = 200 w·hr/m^2, open), 5th day), “Crystal Form A”; in data set [4] (Light (total illuminance = 1.2 × 10^6 Lux·hr/near ultraviolet = 200 w·hr/m^2, open), 10th day), “Crystal Form A”. For the same compound, the “Solvent stability (conclusion)” value in data set [2] (in the solvent) was “good stability”. Besides, the “TGI (%) (Day 35)” value in data set [3] (1 mg/kg) was 81.9%; in data set [3] (1.5 mg/kg), 99.2%; in data set [3] (3 mg/kg), 115.6%. Further, the “Tumor volume (mm^3) (Day 35)” value in data set [3] (1 mg/kg) stood at 178 ± 17 mm^3; in data set [3] (1.5 mg/kg), 121 ± 15 mm^3; in data set [3] (3 mg/kg), 68 ± 13 mm^3. Moreover, the “Anti-tumor effect (conclusion)” value in data set [3] (NCI-H1417 xenograft tumor model) was “excellent anti-tumor effect”. In addition, the “Solid stability (conclusion)” value in data set [4] (high temperature, high humidity and strong light) is “good stability”.
